Measurements from patent US11987555B2, “Malassezin and analogs thereof as skin brightening agents” (Versicolor Technologies, LLC, priority 2016, dated 2024).
Like-named read-outs stand apart in the source and are kept apart here.

Assays:
MeWo cells [1] = experiment: Lactate dehydrogenase (LDH) release assay; details: after 72-hour incubation
Experimental: (§16) The LDH assay quantitatively measures lactate dehydrogenase (“LDH”) released into the media from damaged cells as a biomarker for cytotoxicity and cytolysis.
(§17) CytoTox-ONE™ Homogenous Membrane Integrity Assay was purchased from Promega.
(§18) For the LDH release assay, plates were removed from the incubator and equilibrated at room temperature for 15 minutes. Plates were then centrifuged at 1,000 RPM for 1 minute. 20 μL of cell culture medium was transferred into a new 384-well black solid plate. Then, 20 μL of CytoTOX-ONE™was added into each well and incubated at room temperature for 10 minutes. Afterward, 10 μL of stop solution were added to each well, and the plates were agitated at 500 rpm for 1 minute. Plates were read using an excitation wavelength of 560 nm and an emission wavelength of 590 nm on EnSpire. The relative activity was calculated according to the following formula: Relative Activity (%)=100%×(Lumsample−Lumbkg)/(Lumvehicle−Lumbkg).

[2] = tested on: primary human melanocytes; details: Krämer, et al., 2005; cited from earlier work
MeWo cells [3] = experiment: Cell morphology after treatment (micrographs); format: cell-based; details: 100 μM of test compound, 6 hours
Experimental: FIGS. 5A-5K are micrographs showing MeWo cell morphology after 6 hours of treatment with various concentrations of CV-8684, CV-8685, CV-8688, DMSO, and staurosporine.
(§1) Typical cell morphology after various treatments is shown in FIGS. 5A-5K, 6A-6K, 7A-7K, 8A-8K, 9A-9K, 10A-10K, 11A-11K, and 12A-12K.

MeWo cells [4] = experiment: Additional annexin V assay (3 doses, 6-72 hours); format: cell-based; details: 6 hours, doses 100, 10, 1 μM
Experimental: (§2) To further investigate the impact of test compounds on apoptosis, multiple readouts, covering different stages of apoptosis, were carried out on both MeWo and WM115 cells. Both cell types were treated with test compounds at 3 doses (100 μM, 10 μM, and 1 μM). Staurosporine was used as a positive control. […] The test compounds evaluated were CV-8684, CV-8685, and CV-8688.
(§3) Cell seeding was performed as discussed above with the following exceptions: the final cell density was 4,000 cells/well for 6-hour and 24-hour detections, whereas 2,000 cells/well were used for 48-hour and 72-hour detections. For each time point, 384-well clear bottom plates (Corning 3712) and solid white bottom plates (Corning 3570) were prepared. The plates were incubated as discussed above.
(§4) For preparation of the compound source plate, each test compound was dissolved in DMSO to 10 mM stock. Two additional concentrations were generations by 10-fold dilution to 1 mM and 0.1 mM. Staurosporine was used as positive control and 1% DMSO was employed as vehicle (negative) control. The compound source plate was spun at room temperature at 1,000 RPM for 1 minute and agitated using a plate shaker for 2 minutes.
(§5) 400 nL of test compound was transferred from the compound source plate to 384-well culture plates using Echo550 liquid handler. After 6, 24, 48, and 72 hours, the plates were removed from the incubator for detections.
(§6) Culture media was removed and cells were washed twice with PBS. 20 μL of pre-mixed annexin V-FITC working solution was added to each well. The cells were incubated at room temperature for 20 minutes. Plates were read using Acumen eX3 to count the number of FITC-positive cells.

WM115 cells [5] = experiment: Additional annexin V assay (3 doses, 6-72 hours); format: cell-based; details: 6 hours, doses 100, 10, 1 μM
Experimental: as §2, §3, §4, §5, §6

MelanoDerm™ Skin Model = experiment: MelanoDerm assay, visual pigmentation; format: cell-based, human; details: day 7; 200 μM and 50 μM, topical every 48 hours
Experimental: FIGS. 16A-16K are photographs of MelanoDerm™ matrices at either day 0 or day 7 after exposure to no treatment (FIG. 16A), sterile deionized water (FIG. 16B), 1% kojic acid (FIG. 16C), 0.2% DMSO (FIG. 16D), 0.05% DMSO (FIG. 16E), 200 μM CV-8684 (FIG. 16F), 50 μM CV-8684 (FIG. 16G), 200 μM CV-8686 (FIG. 16H), 50 μM CV-8686 (FIG. 16I), 200 μM CV-8688 (FIG. 16J), and 50 μM CV-8688 (FIG. 16K).
The MelanoDerm™ Skin Model provided by MatTek Corporation (Ashland, MA) will be used in this study. The MelanoDerm™ tissue consists of normal, human-derived epidermal keratinocytes (NHEKs) and melanocytes (NHMs) which have been cultured to form a multilayered, highly differentiated model of the human epidermis. The NHMs within co-cultures undergo spontaneous melanogenesis leading to tissues of varying levels of pigmentation. The cultures are grown on cell culture inserts at the air-liquid interface, allowing for topical application of skin modulators. […]
At the end of the 7-day trial, the MelanoDerm™ tissues dosed with the negative or positive control, and with each test article will be photographed using a digital camera to aid in the visual assessment of the degree of pigmentation of the tissues at the end of the assay (Day 7). […] Then, the viability of the tissues will be determined by MTT reduction as indicated below.

[6] = biological target: T1, arylhydrocarbon receptor (AhR) (Homo sapiens, UniProt P35869); details: Wille et al., 2001; cited from earlier work
T1 sequence (P35869 11-848): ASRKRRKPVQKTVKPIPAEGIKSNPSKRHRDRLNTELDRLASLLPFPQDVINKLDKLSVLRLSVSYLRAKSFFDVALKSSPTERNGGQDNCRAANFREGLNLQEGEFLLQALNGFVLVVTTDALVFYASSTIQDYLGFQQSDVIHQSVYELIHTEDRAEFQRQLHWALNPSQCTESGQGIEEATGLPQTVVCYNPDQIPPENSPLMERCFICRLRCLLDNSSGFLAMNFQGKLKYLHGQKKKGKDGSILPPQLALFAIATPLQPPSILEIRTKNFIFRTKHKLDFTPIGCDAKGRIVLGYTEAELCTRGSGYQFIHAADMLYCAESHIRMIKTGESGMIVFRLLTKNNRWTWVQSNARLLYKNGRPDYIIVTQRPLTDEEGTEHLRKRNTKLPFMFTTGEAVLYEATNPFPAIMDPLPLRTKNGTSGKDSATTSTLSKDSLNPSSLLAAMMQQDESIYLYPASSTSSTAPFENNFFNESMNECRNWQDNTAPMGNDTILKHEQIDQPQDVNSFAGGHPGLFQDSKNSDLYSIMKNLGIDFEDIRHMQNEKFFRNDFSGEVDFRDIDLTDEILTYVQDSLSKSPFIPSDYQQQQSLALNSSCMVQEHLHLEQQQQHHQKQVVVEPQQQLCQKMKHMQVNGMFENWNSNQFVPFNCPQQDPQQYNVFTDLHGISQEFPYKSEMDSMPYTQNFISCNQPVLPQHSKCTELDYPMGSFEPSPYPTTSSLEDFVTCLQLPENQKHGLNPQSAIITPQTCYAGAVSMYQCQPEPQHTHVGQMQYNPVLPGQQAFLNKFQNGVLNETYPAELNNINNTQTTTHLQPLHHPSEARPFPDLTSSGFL

WM115 cells [7] = experiment: Cell morphology after treatment (micrographs); format: cell-based; details: 100 μM of test compound, 6 hours
Experimental: FIGS. 9A-9K are micrographs showing WM115 cell morphology after 6 hours of treatment with various concentrations of CV-8684, CV-8685, CV-8688, DMSO, and staurosporine.
as §1

MeWo cells [8] = experiment: CellTiter-Glo cell viability assay; format: cell-based; details: doses 100, 10, 1 μM, 6-72 hours
Experimental: (§7) CellTiter-Glo® 2.0 assay was purchased from Promega.
(§8) CellTiter-Glo® reagents were thawed and equilibrated to room temperature before the experiment. 40 μL of CellTiter-Glo® reagent was then added to each well for detection (at 1:1 ratio to culture medium). The plates were then incubated at room temperature for 30 minutes and read using EnSpire (PerkinElmer) plate reader. The remaining activity was calculated according to the following formula: Remaining Activity (%)=100%×(Lumsample−Lumbkg)/(Lumvehicle−Lumbkg).

WM115 cells [9] = experiment: CellTiter-Glo cell viability assay; format: cell-based; details: doses 100, 10, 1 μM, 6-72 hours
Experimental: as §7, §8

WM115 cells [10] = experiment: Lactate dehydrogenase (LDH) release assay; details: after 72-hour incubation
Experimental: as §16, §17, §18

MeWo cells [11] = experiment: Preliminary annexin V assay; format: cell-based; details: 6-hour treatment, preliminary screen
Source text: (§9) MeWo (ATCC® HTB-65™) and WM115 (ATCC® CRL-1675) cells were purchased from ATCC (Manassas, VA) and maintained in the following: for MeWo: DMEM supplemented with 10% FBS; for WM115: RPMI 1640 supplemented with 10% FBS (10% FBS, 1% stabilized antibiotic anti-mycotic solution).
(§10) In the […] stages of apoptosis, phosphatidylserine (“PS”) is translocated from the inner to the outer leaflet of the cell membrane, exposing PS to the extracellular environment, where it can be detected. Highly fluorescent annexin V conjugates provide quick and reliable detection methods for studying the externalization of PS.
(§11) During the first set of studies, both MeWo and WM115 cells were treated with test compounds at 10 doses starting from 100 μM with 3-fold dilution. Staurosporine was used as positive control. After 6-hour treatment, cell apoptosis was assessed using an annexin V assay. The test compounds evaluated were CV-8684, CV-8685, CV-8686, CV-8687, and CV-8688.
(§12) For cell seeding, cells were harvested and the cell number was determined using Countess® cell counter. Cells were then diluted with culture medium to the desired density. 40 μL of cell suspension per well was added to the required number of wells in a 384-well plate (Corning 3712—clear bottom plate). The final cell density was 6,000 cells/well. After plating, the plates were incubated at 37° C. and 5% CO2 overnight.
(§13) For preparation of compound source plate, each test compound was dissolved in DMSO to 10 mM stock. 3-fold serial dilution was performed using an EVO200™ liquid handler (TECAN) to generate ten concentrations of test compound. 0.1% DMSO was employed as vehicle (negative) control. The compound source plate was then spun at room temperature at 1,000 RPM for 1 minute and agitated using a plate shaker for 2 minutes.
(§14) For compound treatment, 40 nL of compound were transferred from the compound source plate to the 384-well culture plate using liquid handler Echo550 (LabCyte Inc.). After 6-hour incubation, the plates were removed from the incubator for detection.
(§15) For the preliminary annexin V assay, the plates were removed from the incubator and allowed to equilibrate at room temperature for 15 minutes. Culture media was then removed. 20 μL of pre-mixed annexin V-FITC and Hoechst33342 dye working solution were added to each well. The cells were then incubated at room temperature for 20 minutes. The plates were sealed and centrifuged for 1 minute at 1,000 RPM to remove bubbles. Afterward, the plate was read using an Acumen eX3 plate reader.

WM115 cells [12] = experiment: Preliminary annexin V assay; format: cell-based; details: 6-hour treatment, preliminary screen
Source text: as §9, §10, §11, §12, §13, §14, §15

[13] = CellTiter-Glo cell viability assay; format: cell-based; details: human, after 24-hour treatment, read-out: inhibition of cell viability
Experimental: as §7, §8

| SMILES | LDH release (MeWo cells [1]) | apoptosis induction [2] | cell morphology (MeWo cells [3]) | apoptosis induction (annexin V) (MeWo cells [4]) | apoptosis induction (annexin V) (WM115 cells [5]) | pigmentation of MelanoDerm tissues (MelanoDerm™ Skin Model) | AhR agonist activity [6] | cell morphology (WM115 cells [7]) | inhibition of cell viability (MeWo cells [8]) | inhibition of cell viability (WM115 cells [9]) | LDH release (WM115 cells [10]) | annexin V staining (MeWo cells [11]) | EC50 (MeWo cells [11]; read-out: EC50 of annexin V staining) | annexin V staining (WM115 cells [12]) | cytotoxicity at 24 h ([13]; MeWo) | cytotoxicity at 24 h ([13]; WM115) |
| --- | --- | --- | --- | --- | --- | --- | --- | --- | --- | --- | --- | --- | --- | --- | --- | --- |
| O=Cc1c(Cc2c[nH]c3ccccc23)[nH]c2ccccc12 [CV-8684, 2-(1H-indol-3-ylmethyl)-1H-indole-3-carbaldehyde] | did not induce significant release | induces apoptosis | significantly affected | induced apoptosis at the highest concentration tested | induced apoptosis at the highest concentration tested | reduced pigmentation | known agonist | significantly affected | dose-dependent inhibition of cell viability | dose-dependent inhibition of cell viability | did not induce significant release | – | – | – | – | – |
| CC(c1[nH]c2ccccc2c1C=O)c1c[nH]c2ccccc12 (centres unmarked) [CV-8688] | – | – | significantly affected | showed the induction effect within 6 hours of treatment in a dose-dependent manner | showed the induction effect within 6 hours of treatment in a dose-dependent manner | reduced pigmentation | – | significantly affected | inhibited viability of both cell types in a dose-dependent manner | inhibited viability of both cell types in a dose-dependent manner | – | markedly increased | 909 nM | – | – | – |
| CN[C@@H]1C[C@H]2O[C@@](C)([C@@H]1OC)n1c3ccccc3c3c4c(c5c6ccccc6n2c5c31)C(=O)NC4 [Staurosporine, reference compound] | – | – | significantly affected | – | – | – | – | significantly affected | – | – | – | greatly increased | – | greatly increased | 100% | 100% |
